Measured values reported in PubChem BioAssay (NCI).
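The compound was tested at five concentrations on cells cultured in 96-well plates, with a 48-hour exposure period. TGI denotes the concentration required for complete inhibition of growth.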

Key:
Experiment in all cases: inhibition of tumour cell growth, NCI panel, 48 h
OVCAR-8 ovarian = system: OVCAR-8 ovarian
UACC-62 melanoma = system: UACC-62 melanoma
ACHN renal = system: ACHN renal
RPMI-8226 leukemia = system: RPMI-8226 leukemia
HOP-62 NSCLC = system: HOP-62 NSCLC
TK-10 renal = system: TK-10 renal
KM12 colon = system: KM12 colon
UO-31 renal = system: UO-31 renal
MALME-3M melanoma = system: MALME-3M melanoma
RXF 393 renal = system: RXF 393 renal
SN12C renal = system: SN12C renal
HOP-92 NSCLC = system: HOP-92 NSCLC
HCC-2998 colon = system: HCC-2998 colon
EKVX NSCLC = system: EKVX NSCLC
HT29 colon = system: HT29 colon
K-562 leukemia = system: K-562 leukemia
SF-539 CNS = system: SF-539 CNS
SW-620 colon = system: SW-620 colon
OVCAR-3 ovarian = system: OVCAR-3 ovarian

Compound | TGI (OVCAR-8 ovarian) [µM] | TGI (UACC-62 melanoma) [µM] | TGI (ACHN renal) [µM] | TGI (RPMI-8226 leukemia) [µM] | TGI (HOP-62 NSCLC) [µM] | TGI (TK-10 renal) [µM] | TGI (KM12 colon) [µM] | TGI (UO-31 renal) [µM] | TGI (MALME-3M melanoma) [µM] | TGI (RXF 393 renal) [µM] | TGI (SN12C renal) [µM] | TGI (HOP-92 NSCLC) [µM] | TGI (HCC-2998 colon) [µM] | TGI (EKVX NSCLC) [µM] | TGI (HT29 colon) [µM] | TGI (K-562 leukemia) [µM] | TGI (SF-539 CNS) [µM] | TGI (SW-620 colon) [µM] | TGI (OVCAR-3 ovarian) [µM]
C[C@H]1C[C@H]2[C@@H]3CCC4=CC(=O)C=C[C@]4(C)C3=CC[C@]2(C)[C@@]1(O)C(=O)CO | > 100 | > 100 | > 100 | > 100 | > 100 | > 100 | > 100 | > 100 | > 100 | > 100 | > 100 | > 100 | > 100 | > 100 | > 100 | > 100 | – | – | –
O=C(NCCCCCCCN1CCCCCCC1)C(C1CCCCC1)C1CCCCC1 | 26 | 10.1 | 24.4 | 6.71 | 14.4 | 25.6 | 27.5 | 21.3 | 8.53 | 17 | 26.9 | 23.7 | 7.59 | 18.9 | 11.7 | 11.4 | 24.6 | 56.1 | 18.6
C=C1C2CCC3(CCC4C5(C)CCCC4(C=[N+](CCO)C5)C3C2)C1O (stereo not drawn) | > 100 | > 100 | > 100 | > 100 | > 100 | > 100 | > 100 | > 100 | > 100 | > 100 | > 100 | > 100 | > 100 | > 100 | > 100 | – | > 100 | > 100 | > 100
O=[N+]([O-])C(=C/c1cccc2ccccc12)/C(=C\c1cccc2ccccc12)[N+](=O)[O-] | 7.29 | 3.23 | 4.21 | 6.05 | 7.03 | 4.65 | 16 | 3.66 | 5.49 | 3.67 | 6.55 | 4.25 | 5.41 | 11.6 | 5.13 | > 25.9 | 5.63 | 4.5 | 15.5
CC(=O)NCCCCN(CCCNC(C)=O)C(=O)OCc1ccccc1 | > 100 | > 100 | > 100 | > 100 | > 100 | > 100 | > 100 | > 100 | > 100 | > 100 | > 100 | > 100 | > 100 | > 100 | > 100 | > 100 | > 100 | > 100 | > 100
CCOC(=O)/C=C\C(C#N)(C#N)N=Cc1ccsc1 | 14.6 | 32 | 9.26 | 4.25 | 36.9 | 4.63 | 36.5 | 5.71 | 5.35 | 5.46 | 36.3 | 4.52 | 32.3 | 30.6 | 28.1 | 14.3 | 12.9 | 4.11 | 6.42
NC(=O)c1sc2nc3ccccc3n2c1N | > 100 | > 100 | > 100 | > 100 | > 100 | > 100 | – | > 100 | > 100 | 74.8 | – | > 100 | > 100 | > 100 | > 100 | – | 45.9 | > 100 | > 100
COc1cccc(C(NC2=NCCC=N2)c2cc3c(cc2O)OCO3)c1O (stereo not drawn) | 25.4 | 59 | > 100 | 50 | 55.5 | > 100 | > 100 | > 100 | > 100 | 63 | 41.4 | 77.5 | 46.9 | > 100 | > 100 | 40.6 | 46.8 | 41.8 | 59.7
O/N=C1/CCCc2nonc21 | > 100 | > 100 | > 100 | > 100 | > 100 | > 100 | > 100 | > 100 | > 100 | > 100 | > 100 | > 100 | > 100 | > 100 | > 100 | > 100 | > 100 | > 100 | > 100
CN(CCNC(=S)c1cn(C)c2c1ccc1ccccc12)CCNC(=S)c1cn(C)c2c1ccc1ccccc12 | > 100 | > 100 | > 100 | – | > 100 | > 100 | > 100 | > 100 | > 100 | 7.47 | > 100 | > 100 | > 100 | > 100 | > 100 | > 100 | > 100 | > 100 | > 100
CCCC(=O)OCOC(=O)N(C)N=Nc1ccc(C(=O)OCC)cc1 | 84.7 | 44.2 | 56.7 | > 100 | > 100 | > 100 | > 100 | > 100 | 43.3 | 33.5 | 76.7 | 63.7 | 45.9 | > 100 | 41.6 | > 100 | – | 66.3 | > 100
Cc1ccc(S(=O)(=O)N2CC(CCN)c3ccccc32)cc1 (stereo not drawn) | 27 | 11.7 | > 53.2 | > 63.6 | > 29.1 | > 51.1 | > 100 | 27.4 | 17.6 | 12.6 | 10.7 | 52.7 | 30.3 | 82.4 | 8.14 | > 60.8 | 8.59 | 18 | 26.2
c1n[nH]cc1C12C3C4C5C3C1C5C42 (stereo not drawn) | > 100 | > 100 | > 100 | > 100 | > 100 | > 100 | > 100 | > 100 | > 100 | > 100 | > 100 | > 100 | > 100 | > 100 | > 100 | > 100 | > 100 | > 100 | > 100
